Experimental data from article PMC7044277 (Nature Communications, 2020).
“And” between values parts separate entries of the source, which are not always exact repeats. Equal entries are not always repeated.

Assays:
[1] = molecular target: DRD2 (D2 long receptor) wild-type (Homo sapiens, UniProt P14416); experiment: Radioligand competition binding, [3H]-N-methylspiperone, HEK293T membranes; details: DRD2; [3H]-methylspiperone (0.8-1.0 nM); read-out: Ki
[2] = molecular target: DRD3 wild-type (Homo sapiens, UniProt P35462); experiment: Radioligand competition binding, [3H]-N-methylspiperone
[3] = molecular target: T1, DRD4 (D4.4 variant) wild-type (Homo sapiens, UniProt P21917); experiment: as above
T1 sequence (P21917 1-419): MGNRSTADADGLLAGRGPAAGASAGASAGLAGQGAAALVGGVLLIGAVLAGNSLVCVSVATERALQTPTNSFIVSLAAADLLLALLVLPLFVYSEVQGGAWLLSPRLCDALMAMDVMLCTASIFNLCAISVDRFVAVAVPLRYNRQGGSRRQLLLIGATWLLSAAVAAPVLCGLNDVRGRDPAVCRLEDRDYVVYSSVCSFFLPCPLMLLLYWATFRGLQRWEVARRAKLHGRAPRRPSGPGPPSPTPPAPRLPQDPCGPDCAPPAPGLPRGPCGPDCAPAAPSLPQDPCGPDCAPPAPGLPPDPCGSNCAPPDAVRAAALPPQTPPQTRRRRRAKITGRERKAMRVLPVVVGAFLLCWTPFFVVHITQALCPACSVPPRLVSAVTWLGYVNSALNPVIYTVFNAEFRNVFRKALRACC

[4] = molecular target: T2, DRD2 (D2 long receptor) (Homo sapiens, UniProt P14416); experiment: Gαi/o-mediated cAMP inhibition (GloSensor split-luciferase cAMP reporter), HEK293T; type: cell-based; details: for Response, Fig_S11b dose-response: individual replicates;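 as to all read-outs here: compounds applied 15 min at room temperature, then luciferin plus 400 nM isoproterenol to raise cAMP through endogenous β2-adrenergic receptors, luminescence read 15 min later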
[5] = molecular target: T3, DRD4 (D4.4 variant) (Homo sapiens, UniProt P21917); experiment: Gαi/o-mediated cAMP inhibition (GloSensor); type: cell-based; details: DRD4; agonist, cAMP inhibition; read-out: EC50 ± SEM
T3 sequence (P21917 1-419): T1 sequence (P21917 1-419)

[6] = molecular target: T2, DRD2 (D2 long receptor); experiment: β-arrestin2 recruitment (Tango), HTLA cells; type: cell-based; details: for Response, Fig_S11c dose-response: individual replicates
[7] = molecular target: DRD3 (Homo sapiens, UniProt P35462); experiment: β-arrestin2 recruitment (Tango); type: cell-based; details: DRD3, Tango
[8] = molecular target: T3, DRD4 (D4.4 variant); experiment: β-arrestin2 recruitment (Tango); type: cell-based; details: DRD4; Tango; read-out: EC50 ± SEM
[9] = molecular target: DRD2 F1103.28A (Homo sapiens, UniProt P14416, F110A); type: binding; set-up: expressed in transfected cells; host or cells: HEK293T (ATCC CRL-11268); details: DRD2 F1103.28A; read-out: Ki
Chain of DRD2 F1103.28A (P14416 whole entry F110A): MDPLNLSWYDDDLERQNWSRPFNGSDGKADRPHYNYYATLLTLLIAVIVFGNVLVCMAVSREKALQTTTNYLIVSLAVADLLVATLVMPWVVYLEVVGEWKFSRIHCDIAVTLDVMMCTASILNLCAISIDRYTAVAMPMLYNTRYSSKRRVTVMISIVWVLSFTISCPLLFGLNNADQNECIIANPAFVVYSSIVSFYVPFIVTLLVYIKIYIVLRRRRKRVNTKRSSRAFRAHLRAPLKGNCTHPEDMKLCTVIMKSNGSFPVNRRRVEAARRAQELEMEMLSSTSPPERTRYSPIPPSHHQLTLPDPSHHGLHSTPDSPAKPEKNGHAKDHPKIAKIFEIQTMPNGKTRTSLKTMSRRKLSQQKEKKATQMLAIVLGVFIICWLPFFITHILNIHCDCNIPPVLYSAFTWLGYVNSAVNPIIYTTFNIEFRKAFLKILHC

T2 sequence (P14416 whole entry): as the sequence (P14416 whole entry F110A) above, with A110F counted along it
Chain of DRD3 wild-type (P35462 whole entry): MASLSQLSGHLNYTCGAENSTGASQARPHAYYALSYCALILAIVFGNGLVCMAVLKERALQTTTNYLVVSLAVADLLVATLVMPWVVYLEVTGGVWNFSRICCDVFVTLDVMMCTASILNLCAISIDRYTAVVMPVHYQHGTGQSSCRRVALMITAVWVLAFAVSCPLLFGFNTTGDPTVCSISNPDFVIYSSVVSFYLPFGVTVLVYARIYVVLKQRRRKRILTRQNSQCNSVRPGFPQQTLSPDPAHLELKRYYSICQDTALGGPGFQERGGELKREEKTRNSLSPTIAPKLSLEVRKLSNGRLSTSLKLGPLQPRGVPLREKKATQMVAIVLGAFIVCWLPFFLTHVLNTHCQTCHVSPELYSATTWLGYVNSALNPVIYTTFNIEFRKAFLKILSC
Chain of DRD3 (P35462 whole entry): as above
Chain of DRD2 (D2 long receptor) wild-type (P14416 whole entry): as the sequence (P14416 whole entry F110A) above, with A110F counted along it

Ki [1]: > 10000 nM
Ki ([2]; DRD3, [3H]-methylspiperone (0.8-1.0 nM), read-out: Ki): 760 nM
pKi ± SEM ([2]; DRD3 wild-type): 6.12±0.17
Ki ([3]; DRD4, [3H]-methylspiperone (0.8-1.0 nM), read-out: Ki): 5890 nM
pKi ± SEM ([3]; DRD4 wild-type): 5.23±0.05
EC50 ([4]; DRD2, agonist, Gαi/o-mediated cAMP inhibition, read-out: EC50 ± SEM): 33.1 ± 18.8 nM
Emax relative to quinpirole response ([4]; DRD2, cAMP inhibition): 91.90%
Response, Fig_S11b dose-response ([4]; Log[Drug] -11): 20.5404 and 9.648 and 18.1596 and 0.62
EC50 [5]: > 10000 nM
Emax relative to quinpirole response ([6]; DRD2, Tango): 70.08%
EC50 ([6]; DRD2, β-arrestin2 recruitment (Tango), read-out: EC50 ± SEM): 797 ± 57.7 nM
Response, Fig_S11c dose-response ([6]; Log[Drug] -6.52): 30.014
Emax relative to quinpirole response [7]: 32.40%
EC50 ([7]; read-out: EC50 ± SEM): 2530 ± 290 nM
EC50 [8]: > 10000 nM
Ki [9]: > 10000 nM
SMILES: CC(NCC1(O)CCCCC1)c1cc2ccccc2o1.Cl (stereo not drawn) [O1LE6]
Response, Fig_S11b dose-response ([4]; Log[Drug] -5): 89.3204 and 91.1814 and 93.3649 and 89.4471 and 88.0921 and 76.1419 and 96.2317 and 89.795 and 84.5788
Response, Fig_S11b dose-response ([4]; Log[Drug] -5.52): 91.5039 and 91.6528 and 82.6955 and 86.6619 and 92.27 and 73.2437 and 89.2098 and 91.9183 and 89.3603
Response, Fig_S11b dose-response ([4]; Log[Drug] -6): 93.6874 and 86.8392 and 81.0827 and 85.4951 and 84.0648 and 76.6312 and 94.0081 and 90.9486 and 79.3124
Response, Fig_S11b dose-response ([4]; Log[Drug] -6.52): 82.5466 and 82.8444 and 76.7653 and 79.6611 and 79.6234 and 70.5902 and 84.9299 and 83.4419 and 82.6896
Response, Fig_S11b dose-response ([4]; Log[Drug] -7): 69.4705 and 74.0856 and 77.7579 and 57.4355 and 50.0583 and 54.3867 and 80.2821 and 76.3198 and 67.1078
Response, Fig_S11b dose-response ([4]; Log[Drug] -7.52): 64.6321 and 55.65 and 60.3147 and 22.695 and 37.7317 and 15.9389 and 61.2396 and 56.2574 and 56.2742
Response, Fig_S11b dose-response ([4]; Log[Drug] -8): 44.0874 and 48.1814 and 41.755 and 12.175 and 7.433 and 11.554 and 48.1991 and 55.9732 and 50.8406
Response, Fig_S11b dose-response ([4]; Log[Drug] -8.52): 32.3511 and 30.5646 and 24.436 and 24.7087 and -0.0952 and 5.9082 and 29.5745 and 42.6986 and 35.9443
Response, Fig_S11b dose-response ([4]; Log[Drug] -9): 34.212 and 32.0286 and 29.2744 and 20.4555 and 1.072 and 15.4496 and 33.7709 and 34.4062 and 30.9956
Response, Fig_S11b dose-response ([4]; Log[Drug] -11.52): 13.5185 and 18.481 and 17.1411 and 15.3743 and -1.1867 and 2.859
Response, Fig_S11b dose-response ([4]; Log[Drug] -12): -3.8502 and -19.5316 and -15.1399 and -4.9694 and 6.341 and -2.4664 and 2.0891 and 0.1832 and -19.7287
response, Fig_S11c dose-response source data ([6]; Fig_S11c, Log[Drug] -5, replicate values): 73.3598 and 82.2115 and 60.0642 and 63.6209 and 63.3142 and 65.0045 and 51.1507 and 58.9513 and 48.4491
Response, Fig_S11c dose-response ([6]; Log[Drug] -7): 10.4893 and 10.462 and 11.7147 and 9.282 and 6.266 and 8.074 and 10.4045 and 10.5346 and 7.978
Response, Fig_S11c dose-response ([6]; Log[Drug] -7.52): 6.009 and 6.371 and 5.905 and 4.934 and 4.227 and 4.993 and 4.682 and 6.374 and 4.32
Response, Fig_S11c dose-response ([6]; Log[Drug] -8): 4.1038 and 4.071 and 3.602 and 3.942 and 4.272 and 4.026 and 4.857 and 4.849 and 4.688
Response, Fig_S11c dose-response ([6]; Log[Drug] -8.52): 3.803 and 4.0098 and 4.032 and 4.312 and 4.259 and 4.357 and 4.07 and 4.763 and 3.775
Response, Fig_S11c dose-response ([6]; Log[Drug] -9): 4.244 and 4.685 and 3.406 and 3.869 and 4.425 and 4.183 and 3.883 and 3.8713 and 3.512
Response, Fig_S11c dose-response ([6]; Log[Drug] -9.52): 4.538 and 3.818 and 3.898 and 3.793 and 4.174 and 4.462 and 3.884 and 3.705 and 3.5
Response, Fig_S11c dose-response ([6]; Log[Drug] -10): 3.12 and 5.224 and 4.08 and 4.167 and 4.261 and 4.387 and 3.865 and 3.579 and 4.318
Response, Fig_S11c dose-response ([6]; Log[Drug] -10.52): 3.591 (2×) and 4.048 and 3.394 and 3.852 and 3.958 and 3.858 and 3.561 and 3.474
Response, Fig_S11c dose-response ([6]; Log[Drug] -11): 5.996 and 3.267 and 3.43 and 3.872 and 3.92 and 4.064 and 4.092 and 3.609 and 4.397
Response, Fig_S11c dose-response ([6]; Log[Drug] -11.52): 4.744 and 4.248 and 3.765 and 3.919 and 3.901 and 3.85 and 3.587 and 4.237 and 3.779
Response, Fig_S11c dose-response ([6]; Log[Drug] -12): 4.068 (2×) and 3.901 and 3.393 and 4.0327 and 3.921 and 3.9 and 3.99 and 3.547
